What all share (type): in vivo
The subject of test [1] is Male CD-1 mice. As to the kind of experiment: Postoperative inflammatory ileus, microscopic myeloperoxidase histological examination. As to conditions: Surgical Manipulation, 24 hr post-laparotomy, mean ± SE. On the procedure:
(§1) Male CD-1 mice were anesthetized by inhaled isoflurane and prepared for surgery. The abdomen was shaved of hair and treated with antiseptic solution. The animal was then covered with a surgical drape, leaving the abdomen exposed. A mid-line laparotomy was performed, and the entire small intestine was exteriorized onto the sterile drape. Using two moistened, sterile, cotton-tipped applicators, the small intestine was then gently compressed along its length from the ligament of Treitz to the ileo-cecal junction. The small intestine was then returned to the abdominal cavity and the incision closed by two layers of sutures.
(§2) Age-matched mice were randomly assigned to groups (6 animals per group) and injected intraperitoneally (i.p.) with “vehicle” (a mixture of 5% ethanol/5% Tween80/90% of 5% dextran in water w/v) containing various doses of a test compound 1 hr prior to laparotomy. The second group was injected intraperitoneally with vehicle. The third group was administered intragastrically (1 mg/kg) a mixture (1 mg/mL) of dexamethasone in 20% hydroxypropyl methyl dextran in water, once per day for two days prior to surgery and 5 hrs post-laparotomy. The fourth group received no intervention and served as naïve controls.
Microscopic histological examination was performed on harvested tissues 24 hr post-laparotomy. […] Hanker-Yates reagent (Polysciences Inc.) forms an insoluble, blue-black polymer in the presence of hydrogen peroxide and peroxidase enzyme activity. Segments of mid small bowel were collected from the centrifuge tubes described in the previous section. Whole mounts of the muscle layer were prepared by opening the tube of bowel along the mesenteric border and pinning the tissue flat in a Sylgard™ lined Petri dish with the mucosal surface facing upward. The tissue was stretched to 1.5 times its length and 2.5 times its width, and the mucosa removed by fine dissection. The remaining muscularis whole mounts were then fixed with 100% ethanol for 45 min, washed 3 times with PBS, and incubated for 20 min in PBS containing 0.1% hydrogen peroxide and 1 mg/ml Hanker-Yates reagent (Polysciences, Inc). The reagent is polymerized in the presence of hydrogen peroxide and peroxidase activity to form a blue-black deposit. Following a second wash with PBS, the whole mounts were mounted on glass slides, cover-slipped, and viewed on an optical microscope. Myeloperoxidase containing leukocytes were counted in 6 to 8 adjacent 200× optical fields, and the mean cell counts were calculated and recorded.
The presence of myeloperoxidase (MPO) positive immune cells in the intestinal muscularis is rare in normal animals.

The subject of test [2] is Male CD-1 mice. As to the kind of experiment: Postoperative inflammatory ileus, upper gastrointestinal transit (FITC-dextran, Geometric Center). As to conditions: Surgical Manipulation, 24 hr post-laparotomy, mean ± SE, scale 1 to 15. On the procedure:
as §1, §2
Upper gastrointestinal transit was measured 24 hr post-laparotomy. Mice were fed a test meal consisting of 150 μL of FITC-dextran solution (5 mg/mL of 70,000 molecular weight dextran conjugated to fluorescein-isothiocyanate in 0.5% hydroxypropyl methylcellulose/deionized water) administered intragastrically by an 18 gauge feeding tube. Following oral administration of the FITC-dextran test meal, animals were returned to their home cages. Following a 45 min test period, mice were euthanized by isoflurane overdose and exsanguination. The entire gastrointestinal tract from the lower esophageal sphincter to the terminal colon was removed. The bowel segments were opened along the mesenteric border. The tissue and luminal contents of the stomach, 10 equal segments of small intestine, the cecum, and 3 equal segments of colon were placed in individual Eppendorf tubes containing 1 ml of PBS. The tissue was vigorously mixed on a tabletop vortex, and solid materials were pelletized by centrifugation. Aliquots of the cleared supernatant were read in duplicate on a 96-well fluorescence plate reader to quantify the magnitude of the fluorescent signal in each segment of bowel.
These values were used to calculate the Geometric Center (REF), which is defined as the weighted average distribution of the fluorescent signal along the gastrointestinal tract: GC=Σ(% of total fluorescent signal per segment×segment number)/100,
Higher GC values represent faster rates of transit on scale of 1 to 15.
Surgical manipulation of the small bowel leads to a significant delay in gastrointestinal transit, going from a Geometric Center of 8.4 in normal mice to 3.3 in vehicle treated animals.

Test [3] has as its system Male CD-1 mice. Kind of test: Oil of mustard induced colitis model. As to conditions: Therapeutic Regimen, 5 mg/kg oral; 5 mg/kg. The text has this: In the distal colon, the oil of mustard colitis model is characterized by a discontinuous pattern of mucosal epithelial damage, submucosal edema, infiltration of inflammatory cells (including macrophages, neutrophils and lymphocytes) into the mucosa and submucosa, increased wet weight of the colon, shrinkage of the colon length, diarrhea and apparent inflammation (see, Kimball E. S., Palmer J. M., D'Andrea M. R., Homby P. J. and Wade P. R., Acute colitis induction by oil of mustard results in later development of an IBS-like accelerated upper GI transit in mice, Am. J Physiol. Gastrointest. Liver Physiol., 2005, 288: G 1266-1273).
Male CD-1 mice (Charles River Laboratories, Kingston, N.C.) (9-11 weeks old) and fresh oil of mustard (OM) (allyl isothiocyanate, 98% purity, Sigma-Aldrich St. Louis, Mo.) were used.
The mice (9 per treatment group) were briefly anesthetized with ketamine/xylasine (Sigma, St. Louis, Mo.) and a solution of 0.5% OM in 30% ethanol (50 μL) was administered intracolonically (to a depth of 4 cm) via syringe (equipped with a ball-tipped 22 G needle).
A test compound was orally administered one day prior to colitis induction for assessing a prophylactic regimen or one day post-induction for assessing a therapeutic regimen. A test compound was orally administered daily thereafter. Two days after OM administration, the last test compound dose was administered.
Three days after OM administration, the animals were sacrificed. The colons were resected, examined for signs of inflammation, weighed after removing fecal contents and the length from the aboral end of the cecum to the anus was measured. The fecal contents were examined for signs of diarrhea. The distal colon between the 1st and the 4th centimeter was removed and placed in 10% neutral buffered formalin for histological analysis.
The macroscopic observations of colon inflammation (a measure of colon damage), colon weight and length and stool consistency and appearance were assigned a score and used to evaluate colitis severity.
The four observation scores for each colon were combined, whereby a combined score of 0 represents a normal colon and a combined score of 15 represents a maximally affected colon. Statistical analyses were performed in Graphpad Prism 4.0 using ANOVA.
Histological analyses of tissues consisted of staining paraffin-embedded tissue sections with hematoxylin-eosin dye. The tissues were examined using light microscopy by an investigator who was blinded to the sample groups.
The microscopic observations of epithelial damage, cellular infiltration and damage or alteration of smooth muscle architecture (a measure of muscle damage) were assigned a score and used to evaluate colitis severity.
The scores for each colon were combined, whereby a combined score of 0 represents a normal colon and a combined score of 9 represents a maximally affected colon. Statistical analyses were performed in Graphpad Prism 4.0 using ANOVA.
The Macroscopic Score and Microscopic Score results for each treatment group in the prophylactic and therapeutic regimens were each combined into a mean score and expressed as % inhibition of colitis (% Inh). Test (#) represents the number of experiments at each dose level.

For the molecule `C[C@H](NS(=O)(=O)/C=C/c1n[nH]c2c1CCCCC2Cc1cccc(F)c1)c1ccccc1` (single isomer, unassigned) [Cpd 232, (2E)-2-[(8R*)-8-(3-fluoro-benzyl)-1,4,5,6,7,8-hexahydro-cycloheptapyrazol-3-yl]-ethenesulfonic acid [(1S)-1-phenyl-ethyl]-amide], the “MPO-Positive Cells (Per 200× Optical Field)” value in test [1] (dose 10 mg/kg) is recorded as 127.6 ± 25.7; in test [1] (dose 30 mg/kg), 60.2 ± 20.8. The “Geometric Center (upper gastrointestinal transit)” value was determined as 4.0 ± 0.59 in test [2] (dose 10 mg/kg) and 5.6 ± 0.16 in test [2] (dose 30 mg/kg).

Consider `O=C(N[C@H](CO)c1ccccc1)c1n[nH]c2c1CCCCC2Cc1cccc(Cl)c1` (single isomer, unassigned) [Cpd 230, (8R*)-8-(3-chloro-benzyl)-1,4,5,6,7,8-hexahydro-cycloheptapyrazole-3-carboxylic acid [(1S)-2-hydroxy-1-phenyl-ethyl]-amide], for which the “% Inh (Macro), % inhibition of colitis, macroscopic score” value in test [3] was determined as 25.9 ± 24.7%.

Regarding `C[C@H](NS(=O)(=O)/C=C/c1n[nH]c2c1CCCC/C2=C\c1ccc(Cl)cc1)c1ccccc1` [Cpd 237, (2E,8E)-2-[8-(4-chloro-benzylidene)-1,4,5,6,7,8-hexahydro-cycloheptapyrazol-3-yl]-ethenesulfonic acid [(1S)-1-phenyl-ethyl]-amide], the “MPO-Positive Cells (Per 200× Optical Field)” value in test [1] (dose 1 mg/kg) came out at 57.8 ± 17.0; in test [1] (dose 3 mg/kg), 41.3 ± 9.4; in test [1] (dose 10 mg/kg) it was 77.7 ± 25.7; in test [1] (dose 30 mg/kg), 60.3 ± 20.9. The “Geometric Center (upper gastrointestinal transit)” value was 3.8 ± 0.40 in test [2] (dose 1 mg/kg), 3.6 ± 0.53 in test [2] (dose 3 mg/kg), 4.7 ± 0.40 in test [2] (dose 10 mg/kg) and 5.6 ± 0.76 in test [2] (dose 30 mg/kg).

As for `O=C(N[C@H](CO)c1ccccc1)c1n[nH]c2c1CCCCC2Cc1cccc(Cl)c1` (single isomer, unassigned) [Cpd 231, (8S*)-8-(3-chloro-benzyl)-1,4,5,6,7,8-hexahydro-cycloheptapyrazole-3-carboxylic acid [(1S)-2-hydroxy-1-phenyl-ethyl]-amide], the “% Inh (Macro), % inhibition of colitis, macroscopic score” value in test [3] is reported as −19 ± 20.7%.
